Data: US10993983B2, “Cyclic peptide epitopes and small-molecule mimics for inducing autophagy” (TRUSTEES OF TUFTS COLLEGE, priority 2016, dated 2021)
Entries after “also recorded” stand apart in the source; their conditions may differ. Marks after values point to notes of the source that are not given here. Bridges are numbered along the chain shown (N, C = ends). Where no end group is shown, it is not given here. [ ]: non-standard residue; d: D form. The star is where a group is joined. Hexanoyl = CCCCCC(=O)*; Allyl = C=CC*

Columns and labels:
Format in all cases: cell-based
HeLa cells = test: Autophagy induction judged by p62 and LC3 immunoblots together; parameters: key to Activity compared to wild-type WT / Activity (μM) 10, single symbol / Activity (μM) 30, single symbol / Activity (μM) 50, single symbol / Activity (μM) 100, single symbol: −: activity not reported; 0: decreased vs. WT; +: similar to WT; ++: modest increase vs. WT; +++: significant increase vs. WT; settings: for concentration at which autophagy induction (p62 degradation and LC3 lipidation) was observed: immunoblot, 3 hour treatment; for Activity compared to wild-type WT: Tat-linked linear peptides, summation of p62 degradation assay and LC3 marker assay
Method: This 10-mer sequence was substituted with various thiol-containing amino acids at various positions, and then cross-linked with various linkers as described above (FIG. 5, a and FIG. 6).
(§1) Cells were treated with peptide in OPTI-MEM (Thermo Scientific) acidified with 0.15% (v/v) 6N HCl for 3 hour. Cells were rinsed with Dulbecco's phosphate buffered saline (PBS) and lysed in lysis buffer (20 mM HEPES, 150 mM NaCl, 1 mM EDTA, 1% Triton X-100, protease inhibitor cocktail (Roche) on ice for 1 hour. Cell lysates were centrifuged at 16,000 g for 10 min at 4° C. and analyzed by SDS-PAGE and transferred to PVDF membranes. The membranes were blocked 5% non-fat dry milk (NFDM) in PBST (PBS+0.05% Tween-20) for 1 hour, then incubated overnight at 4° C. with primary antibody in 5% NFDM in PBST. The blots were washed with PBST and incubated with HRP-conjugated secondary antibodies diluted in 5% NFDM in PBST for 1 hour at room temperature. Membranes were washed with PBST and visualized with SuperSignal West Pico Chemiluminescent Substrate (Thermo Scientific). Semi-quantitative results were obtained by noting the lowest concentration at which both p62 degradation and LC3-I to LC3-II conversion were observed.
(SEQ ID NO: 16)-Sequence. […] The N-terminus was capped with an acetyl group while the C terminus was capped with a —C(O)—NH2 group. The activity reported is a summation of results from both the p62 degradation assay and the LC3 marker assay.

p62 = p62 degradation assay (p62/actin immunoblot); parameters: key: −: activity not reported; 0: decreased vs. WT; +: similar to WT; ++: modest increase vs. WT; +++: significant increase vs. WT; settings: for Activity (μM) 30, p62/actin assay activity: 30 μM; for Activity (μM) 50, p62/actin assay activity: 50 μM; for Activity (μM) 10, starred cell, p62/actin assay activity: 10 μM marked * (footnote: data taken at 20 instead of 30 μM); for Activity (μM) 100, p62/actin assay activity: 100 μM; for Activity (μM) 10, p62/actin assay activity: 10 μM
Method: as §1
(§2) Compounds 1-10 were evaluated using the assays described in Examples 4 and 5. Activity for each compound was measured in the p62 degradation assay and the LC3 marker assay as described herein. The activity at each concentration of peptide is given as, for example, (0/+) where 0 would be the p62/actin assay activity and + would be the LC3 assay activity.

LC3 = LC3 marker assay (LC3-I to LC3-II conversion immunoblot); parameters: key: −: activity not reported; 0: decreased vs. WT; +: similar to WT; ++: modest increase vs. WT; +++: significant increase vs. WT; settings: for Activity (μM) 30, LC3 assay activity: 30 μM; for Activity (μM) 50, LC3 assay activity: 50 μM; for Activity (μM) 10, starred cell, LC3 assay activity: 10 μM marked * (footnote: data taken at 20 instead of 30 μM); for Activity (μM) 100, LC3 assay activity: 100 μM; for Activity (μM) 10, LC3 assay activity: 10 μM
Method: as §1, §2

[1] = HeLa cells, p62 and LC3 immunoblots
[2] = Table 8, control compound T25, first symbol
[3] = Table 8, control compound T25, second symbol
[4] = Table 7, control compound T25, first symbol
[5] = Table 7, control compound T25, second symbol
[6] = Table 3, control vehicle, first symbol
[7] = Table 3, control vehicle, second symbol
[8] = Table 6, control DMSO, first symbol
[9] = Table 6, control DMSO, second symbol

Substance: (pa)-VcNAcFHIWH [DD5-m] (pa-V[dC]NA[dC]FHIWH; linker 2-5 via meta‑xylene (inferred))
- autophagy induction, result in words (HeLa cells; [1]): did not induce autophagy

Substance: (hexano)-VcNAcFHIWH (Hexanoyl-V[dC]NA[dC]FHIWH; linker 2-5 via ortho‑xylene (inferred); not fully specified (C-terminus); printed as (hexano)-VcNAcFHIWH) [hexano-DD5-o]
- concentration at which autophagy induction (p62 degradation and LC3 lipidation) was observed (HeLa cells; HeLa cells): 50 µM
- autophagy induction, result in words (HeLa cells; [1]): induced autophagy, but to a somewhat lesser extent than DD5-o

Substance: VLNATFEIWHD [Compound T15, Tat-linked linear peptide]
- Activity compared to wild-type WT (HeLa cells): +

Substance: (pa)-VcNAcFHIWH [DD5-allyl] (pentynoyl-V[dC](Allyl)NA[dC](Allyl)FHIWH; not fully specified (C-terminus); printed as (pa)-VcNAcFHIWH [DD5-allyl]) [allyl, unstapled]
- autophagy induction, result in words (HeLa cells; [1]): did not induce autophagy

Substance: VFNATFEIWHE [Compound T11, Tat-linked linear peptide]
- Activity compared to wild-type WT (HeLa cells): +

Substance: (pa)-VcNAcFHIWA (pa-V[dC]NA[dC]FHIWA; linker 2-5 via ortho‑xylene (inferred)) [His10Ala]
- concentration at which autophagy induction (p62 degradation and LC3 lipidation) was observed (HeLa cells; HeLa cells): 100 µM
- activity relative to DD5-o (fold worse) (HeLa cells; [1]): 5 fold
- autophagy induction, result in words (HeLa cells; [1]): significantly decreased activity

Substance: VWAATFHIWHD [Compound T36, Tat-linked linear peptide]
- Activity compared to wild-type WT (HeLa cells): +

Substance: WNATFHIWH [Compound T32, Tat-linked linear peptide]
- Activity compared to wild-type WT (HeLa cells): ++

Substance: VFNATFEIWYD [Compound T10, Tat-linked linear peptide]
- Activity compared to wild-type WT (HeLa cells): +

Substance: VWNATFHIWHD [Compound T17, Tat-linked linear peptide]
- Activity (μM) 10, single symbol (HeLa cells; 10 μM, Table 6, control DMSO, one symbol only): +
- Activity compared to wild-type WT (HeLa cells): +++

Substance: VFNATFELWHD [Compound T8, Tat-linked linear peptide]
- Activity compared to wild-type WT (HeLa cells): ++

Substance: (pa)-VCNAcFHIWH (pa-VCNA[dC]FHIWH; linker 2-5 via ortho‑xylene (inferred)) [LD5-o]
- autophagy induction, result in words (HeLa cells; [1]): mildly increased autophagy

Substance: (pa)-VcNATcHIWH (pa-V[dC]NAT[dC]HIWH; linker 2-6 via meta‑xylene (inferred)) [DD6-m]
- concentration at which autophagy induction (p62 degradation and LC3 lipidation) was observed (HeLa cells; HeLa cells): 100 µM
- autophagy induction, result in words (HeLa cells; [1]): capable of inducing autophagy

Substance: VWNAAFHIWHD [Compound T37, Tat-linked linear peptide]
- Activity compared to wild-type WT (HeLa cells): ++

Substance: WNATFHIWHD [Compound T34, Tat-linked linear peptide]
- Activity compared to wild-type WT (HeLa cells): +++

Substance: VFDATFEIWHD [Compound T3, Tat-linked linear peptide]
- autophagy induction, result in words (HeLa cells; [1]): less than Tat-beclin-1

Substance: (pa)-VcNAcFHAWH (pa-V[dC]NA[dC]FHAWH; linker 2-5 via ortho‑xylene (inferred)) [Ile8Ala]
- autophagy induction, result in words (HeLa cells; [1]): complete loss of activity; also recorded: complete loss in activity

Substance: VFNATFEIFHD [Compound T9, Tat-linked linear peptide]
- Activity compared to wild-type WT (HeLa cells): +

Substance: (pa)-VWNATFHIWHD (not fully specified (N-terminus, C-terminus); printed as (pa)-VWNATFHIWHD) [pa-11mer, no linker]
- autophagy induction, result in words (HeLa cells; [1]): did not increase autophagic activity; also recorded: loss of activity

Substance: (pa)-VcNAcAHIWH (pa-V[dC]NA[dC]AHIWH; linker 2-5 via ortho‑xylene (inferred)) [Phe6Ala]
- autophagy induction, result in words (HeLa cells; [1]): complete loss of activity; also recorded: complete loss in activity

Substance: VFNATFDIWHD [Compound T7, Tat-linked linear peptide]
- Activity compared to wild-type WT (HeLa cells): +

Substance: (pa)-AcNAcFHIWH (pa-A[dC]NA[dC]FHIWH; linker 2-5 via ortho‑xylene (inferred)) [Val1Ala]
- autophagy induction, result in words (HeLa cells; [1]): complete loss in activity
- autophagy induction, result in words (HeLa cells; HeLa cells, p62 and LC3 immunoblots, listed as Vail): complete loss of activity

Substance: (pa)-VcAAcFHIWH (pa-V[dC]AA[dC]FHIWH; linker 2-5 via ortho‑xylene (inferred)) [Asn3Ala]
- autophagy induction, result in words (HeLa cells; [1]): milder effects on activity

Substance: VFNATFEMWHD [Compound T16, Tat-linked linear peptide]
- Activity compared to wild-type WT (HeLa cells): +

Substance: VCNACFHIWH [Compound 72]
- Activity (μM) 30, p62/actin assay activity (p62; [2]): 0/0
- Activity (μM) 50, p62/actin assay activity (p62; [2]): +
- Activity (μM) 10, starred cell, p62/actin assay activity (p62; Table 8, first symbol): 0/0*
- Activity (μM) 30, LC3 assay activity (LC3; [3]): 0/0
- Activity (μM) 50, LC3 assay activity (LC3; [3]): ++
- Activity (μM) 10, starred cell, LC3 assay activity (LC3; Table 8, second symbol): 0/0*

Substance: VCNATCHIWH [Compound 29]
- Activity (μM) 30, p62/actin assay activity (p62; [4]): 0/0
- Activity (μM) 50, p62/actin assay activity (p62; [4]): +
- Activity (μM) 100, p62/actin assay activity (p62; [4]): ++
- Activity (μM) 30, LC3 assay activity (LC3; [5]): 0/0
- Activity (μM) 50, LC3 assay activity (LC3; [5]): 0
- Activity (μM) 100, LC3 assay activity (LC3; [5]): 0

Substance: VWNATFHIWH (not fully specified (N-terminus, C-terminus)) [Compound 64]
- Activity (μM) 10, p62/actin assay activity (p62; [2]): 0/0
- Activity (μM) 30, starred cell, p62/actin assay activity (p62; Table 8, *Data taken at 20 instead of 30 μM, first symbol): 0/0*
- Activity (μM) 10, LC3 assay activity (LC3; [3]): 0/0
- Activity (μM) 30, starred cell, LC3 assay activity (LC3; Table 8, *Data taken at 20 instead of 30 μM, second symbol): 0/0*

Substance: VCNATCHIWH [Compound 2]
- Activity (μM) 10, p62/actin assay activity (p62; Table 3, control vehicle, first symbol of cell): 0/0
- Activity (μM) 20, p62/actin assay activity (p62; 20 μM, Table 3, control vehicle, first symbol): 0/0
- Activity (μM) 30, p62/actin assay activity (p62; [2]): 0/0
- Activity (μM) 50, p62/actin assay activity (p62; [6]): 0/0
- Activity (μM) 50, p62/actin assay activity (p62; [2]): 0
- Activity (μM) 100, p62/actin assay activity (p62; [6]): 0/0
- Activity (μM) 10, starred cell, p62/actin assay activity (p62; Table 8, first symbol): 0/0*
- Activity (μM) 10, LC3 assay activity (LC3; Table 3, control vehicle, second symbol of cell): 0/0
- Activity (μM) 20, LC3 assay activity (LC3; 20 μM, Table 3, control vehicle, second symbol): 0/0
- Activity (μM) 30, LC3 assay activity (LC3; [3]): 0/0
- Activity (μM) 50, LC3 assay activity (LC3; [7]): 0/0
- Activity (μM) 50, LC3 assay activity (LC3; [3]): +
- Activity (μM) 100, LC3 assay activity (LC3; [7]): 0/0
- Activity (μM) 10, starred cell, LC3 assay activity (LC3; Table 8, second symbol): 0/0*

Substance: VCNACFHIWH [Compound 57]
- Activity (μM) 10, p62/actin assay activity (p62; [2]): 0/0
- Activity (μM) 30, p62/actin assay activity (p62; [2]): +
- Activity (μM) 50, p62/actin assay activity (p62; [2]): +
- Activity (μM) 10, LC3 assay activity (LC3; [3]): 0/0
- Activity (μM) 30, LC3 assay activity (LC3; [3]): 0
- Activity (μM) 50, LC3 assay activity (LC3; [3]): 0

Substance: RCNARCRIWR (H-R[dC]NAR[dC]RIWR; not fully specified (C-terminus); cysteine pairing not given here) [Compound 40]
- Activity (μM) 50, p62/actin assay activity (p62; [2]): 0/0
- Activity (μM) 100, p62/actin assay activity (p62; [2]): 0/0
- Activity (μM) 50, LC3 assay activity (LC3; [3]): 0/0
- Activity (μM) 100, LC3 assay activity (LC3; [3]): 0/0

Substance: VCNATCHIWH [Compound 22]
- Activity (μM) 10, p62/actin assay activity (p62; [8]): +++
- Activity (μM) 30, p62/actin assay activity (p62; [8]): +++
- Activity (μM) 50, p62/actin assay activity (p62; [8]): +++
- Activity (μM) 100, p62/actin assay activity (p62; [8]): +++
- Activity (μM) 10, LC3 assay activity (LC3; [9]): +
- Activity (μM) 30, LC3 assay activity (LC3; [9]): +
- Activity (μM) 50, LC3 assay activity (LC3; [9]): ++
- Activity (μM) 100, LC3 assay activity (LC3; [9]): +

Substance: VCNACFHIWH [Compound 52]
- Activity (μM) 50, p62/actin assay activity (p62; [2]): 0
- Activity (μM) 100, p62/actin assay activity (p62; [2]): 0
- Activity (μM) 50, LC3 assay activity (LC3; [3]): +
- Activity (μM) 100, LC3 assay activity (LC3; [3]): +
